Data: patent US20210289794A1, “COMPOSITIONS AND RELATED METHODS FOR AGRICULTURE” (Flagship Pioneering Innovations V, Inc., priority 2018, published 2021)
Peptide text beside a SMILES is read from it.

System: Candidatus Pantoea carbekii
Test: Quantification of P. carbekii titers by RT-qPCR in H. halys nymphs hatched from treated eggs
Assay type: in vivo, Halyomorpha halys
Conditions: for levels of P. carbekii (symbiont levels per host; ratio of P. carbekii dnaK to H. halys 60s expression): Example 5: egg mass treatment, late 2nd instars, vs water control, FIG. 5; for levels of P. carbekii (ratio of P. carbekii dnaK to H. halys 60s expression): third instars collected, vs negative control
Method: Total RNA was extracted from nymphs using total RNA isolation and purification kits (both from Thermo Fisher Scientific), and the extracted RNA was eluted in 100 μL water. […] Each of the PCR mixtures was 10 μL in volume. RT-qPCR was performed using a PCR amplification ramp of 1.6° C./s and the following conditions: 1) 48° C. for 30 min; 2) 95° C. for 10 minutes; 3) 95° C. for 15 seconds; 4) 55° C. for 30 seconds; 5) repeat steps 3-4 40×, 6); 95° C. for 15 seconds; 7) 55° C. for 1 minute; 8) ramp change to 0.15° C./s; 9) 95° C. for 1 second. RT-qPCR data was analyzed using analytic software (Thermo Fisher Scientific).
Working concentrations of the PHA synthesis inhibitors (vanillin, levulinic acid, acrylic acid (AA), and 2-bromooctanoic acid (2BA)) were made up to 100 μg/ml in water. The solutions of PHA inhibitors were spiked with a non-ionic wetting solution to a final concentration of 0.025% to increase the wettability and spreading of the agents on the eggs. As a negative control, no agents were added to the 0.025% non-ionic wetting solution, and as a positive control, 100 μg/ml of the antibiotic rifamycin S was used. Egg masses on leaf disks were removed from the colony in a single day during peak egg production. Each egg mass was then placed in a container with a paper towel at the bottom, and a tube of water plugged with cotton was provided as a water source for the hatchlings. 100 μl of the agent was pipetted onto the eggs to wet them completely. This allowed the agent to interact directly with the bacteria before the bacteria was able to colonize the host. Once the 1st instar hatchlings molted to the 2nd instar stage, food was provided in the form of 500 mg diet pellets (see “Halyomorpha halys lab colony rearing and maintenance” above). Late 2nd instars were collected and frozen to extract DNA to assay for the symbiont levels, as described in Example 4. […]

[1] = 100 μg/ml in water with 0.025% non-ionic wetting solution, 100 μl
[2] = Example 6: egg mass treatment, 100 μg/ml in water with 0.025% Silwet L-77, 100 μl, FIG. 6

SMILES | levels of P. carbekii (symbiont levels per host; ratio of P. carbekii dnaK to H. halys 60s expression) [1] | levels of P. carbekii (ratio of P. carbekii dnaK to H. halys 60s expression) [2] | levels of P. carbekii (ratio of P. carbekii dnaK to H. halys 60s expression) (Example 7: egg mass treatment, 100 μg/ml in water with 0.025% non-ionic wetting solution, 100 μl, FIG. 7)
CCCCCCC(Br)C(=O)O (centres unmarked) [2-bromooctanoic acid] | reduction in the symbiont levels per host |  | 
CC[C@H](C)[C@H](N)C1=N[C@H](C(=O)N[C@@H](CC(C)C)C(=O)N[C@H](CCC(=O)O)C(=O)N[C@H](C(=O)N[C@H]2CCCCNC(=O)[C@H](CC(N)=O)NC(=O)[C@@H](CC(=O)O)NC(=O)[C@H](Cc3cnc[nH]3)NC(=O)[C@@H](Cc3ccccc3)NC(=O)[C@H]([C@@H](C)CC)NC(=O)[C@@H](CCCN)NC2=O)[C@@H](C)CC)CS1 [bacitracin] (HELM PEPTIDE1{[CC[C@H](C)[C@H](N)C1=N[C@H](C(=O)[*:2])CS1].L.[dE].I.K.[NCCC[C@@H](N[*:1])C(=O)[*:2]].I.[dF].H.[dD].N}$PEPTIDE1,PEPTIDE1,5:R3-11:R2$$$V2.0) |  | significantly lower | 
COc1cc(C=O)ccc1O [vanillin] | reduction in the symbiont levels per host |  | 
CC(=O)CCC(=O)O [levulinic acid] | reduction in the symbiont levels per host |  | 
CO[C@H]1/C=C/O[C@@]2(C)Oc3c(C)c(O)c4c(c3C2=O)C(=O)C=C(NC(=O)/C(C)=C\C=C\[C@H](C)[C@H](O)[C@@H](C)[C@@H](O)[C@@H](C)[C@H](OC(C)=O)[C@@H]1C)C4=O [Rifamycin S] | significantly lower | significantly lower | significantly lower
C=CC(=O)O [acrylic acid] | reduction in the symbiont levels per host |  | 
